Measured values taken from patent US11839613B2, “Pyrimidine derivatives as PGE2 receptor modulators” (IDORSIA PHARMACEUTICALS LTD, priority 2017, dated 2023).

What was measured:
EP2 = EP2 (Homo sapiens (Human), UniProt P43116); assay: hEP2 cAMP assay (SF295 glioblastoma cells, HTRF cAMP); format: cell-based; settings: antagonistic activity
In short: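 PGE2-driven cAMP accumulation was measured by HTRF in SF295 cells, which express endogenous EP2 only. Cells in assay buffer with 2 mM IBMX were pre-incubated 45 min at RT, then incubated 30 min at RT. Detection used competition between cellular cAMP and d2-cAMP for a cryptate anti-cAMP antibody.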

PTGER2 (EP2) = PTGER2 (EP2) (Homo sapiens (Human), UniProt P43116); assay: hEP2 b-arrestin assay (PathHunter HEK 293 PTGER2 b-arrestin cells); format: cell-based; settings: antagonistic activity, beta-arrestin assay; read-out: hEP2 b-arr IC50
Procedure: Plate is pre-incubated 15 minutes at 37° C. Then five microliters of PGE2 (final conc. 5 μM) are transferred into the assay plate. Plate is incubated 120 minutes at 37° C.
(each concentration is measured in duplicate)

PTGER4 (EP4) = PTGER4 (EP4) (Homo sapiens (Human), UniProt P35408)
EP4 = EP4 (Homo sapiens (Human), UniProt P35408); assay: hEP4 cAMP assay (BT549 breast cancer cells, HTRF cAMP); format: cell-based; settings: antagonistic activity, PGE2 6 nM
In short: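 BT549 breast cancer cells (endogenous EP4) in HBSS/20 mM HEPES/0.2% BSA/2 mM IBMX preincubated 45 min at RT with compound, then stimulated 30 min at RT with 6 nM PGE2 (final). cAMP read by competitive HTRF immunoassay, signal inversely proportional to cAMP.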

EP4, sequence (P35408 whole entry): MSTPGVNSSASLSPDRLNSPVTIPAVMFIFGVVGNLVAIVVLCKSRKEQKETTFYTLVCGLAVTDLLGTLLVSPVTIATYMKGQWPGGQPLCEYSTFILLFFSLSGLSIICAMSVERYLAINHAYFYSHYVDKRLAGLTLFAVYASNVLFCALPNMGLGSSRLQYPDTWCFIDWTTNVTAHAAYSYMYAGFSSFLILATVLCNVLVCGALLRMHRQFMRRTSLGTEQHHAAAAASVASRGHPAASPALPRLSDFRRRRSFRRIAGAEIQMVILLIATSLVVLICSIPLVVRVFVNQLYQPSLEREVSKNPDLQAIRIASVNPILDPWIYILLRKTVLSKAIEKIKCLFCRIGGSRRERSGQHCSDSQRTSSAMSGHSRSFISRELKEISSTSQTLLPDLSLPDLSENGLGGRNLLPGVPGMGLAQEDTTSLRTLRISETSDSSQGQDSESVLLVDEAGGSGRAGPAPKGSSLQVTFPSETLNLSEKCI
PTGER4 (EP4), sequence (P35408 whole entry): as above
EP2, sequence (P43116 whole entry): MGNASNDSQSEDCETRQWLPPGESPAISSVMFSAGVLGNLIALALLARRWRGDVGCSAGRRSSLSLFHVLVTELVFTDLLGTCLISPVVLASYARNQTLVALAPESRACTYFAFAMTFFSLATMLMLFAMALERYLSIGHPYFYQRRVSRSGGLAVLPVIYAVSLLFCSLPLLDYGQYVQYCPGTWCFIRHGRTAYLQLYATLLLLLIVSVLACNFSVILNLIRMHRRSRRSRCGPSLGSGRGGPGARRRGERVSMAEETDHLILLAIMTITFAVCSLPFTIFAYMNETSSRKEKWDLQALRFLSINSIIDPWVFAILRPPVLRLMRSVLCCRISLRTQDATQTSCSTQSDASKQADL
PTGER2 (EP2), sequence (P43116 whole entry): as above

| Structure (SMILES) | IC50 (EP2) | IC50 (PTGER2 (EP2)) | IC50 (PTGER4 (EP4)) | IC50 (EP4) |
| --- | --- | --- | --- | --- |
| CCOc1cc2sccc2cc1CCNc1cc(-c2ccc(OCC(=O)O)c(OCC)c2)ncn1 [Ex 53] | 12 nM | 5 nM | 12 nM | 25 nM |
| COc1cc2sccc2cc1CCNc1cc(-c2ccc(C(=O)O)c(OC3CCC3)c2)ncn1 [Ex 63] | 12 nM | 16 nM | 50 nM | 33 nM |
| CCOc1cc(-c2cc(NCCc3cc4c(cc3C#N)OCO4)ncn2)sc1C(=O)O [Ex 64] | 28 nM | 25 nM | 41 nM | 33 nM |
| CCOc1cc(-c2cc(NCCc3ccc4ncccc4c3F)ncn2)sc1C(=O)O [Ex 69] | 222 nM | 438 nM | 59 nM | 38 nM |
| CCOc1cc(-c2cc(NCCc3cc4ccsc4cc3OC)ncn2)ccc1OCC(=O)O [Ex 80] | 37 nM | 17 nM | 32 nM | 45 nM |
| CCOc1cc(-c2cc(NCCc3cc4cccnc4c(C)c3Cl)ncn2)sc1C(=O)O [Ex 87] | 134 nM | 173 nM | 85 nM | 51 nM |
| CCOc1cc(-c2cc(NCCc3ccc4scnc4c3)ncn2)sc1C(=O)O [Ex 88] | 64 nM | 107 nM | 59 nM | 53 nM |
| CCOc1cc(-c2cc(NCCc3cc(F)c4cc(C)sc4c3OC)ncn2)sc1C(=O)O [Ex 94] | 528 nM | 423 nM | 49 nM | 59 nM |
| CCOc1cc(-c2cc(NCCc3ccc4sccc4c3)nc(C)n2)sc1C(=O)O [Ex 96] | 57 nM | 148 nM | 92 nM | 61 nM |
| CCOc1cc(-c2cc(NCCc3ccc4c(c3)CCO4)ncn2)sc1C(=O)O [Ex 114] | 222 nM | 222 nM | 640 nM | 85 nM |
| CCOc1cc(-c2cc(NCCc3cc4cccnc4c(F)c3Cl)ncn2)sc1C(=O)O [Ex 117] | 61 nM | 53 nM | 131 nM | 88 nM |
| CCOc1cc(-c2cc(NCCc3cc4ccsc4cc3OC)ncn2)ccc1CC(=O)O [Ex 118] | 66 nM | 34 nM | 74 nM | 88 nM |
| CCOc1cc(-c2cc(NCCc3cc4c(cc3OC)OCCO4)ncn2)ccc1OCC(=O)O [Ex 120] | 111 nM | 114 nM | 61 nM | 92 nM |
| CCOc1cc2sccc2cc1CCNc1cc(-c2ccc(C(=O)O)c(OCC)c2)ncn1 [Ex 126] | 6 nM | 8 nM | 66 nM | 101 nM |
| CCOc1cc(-c2cc(NCCc3cc4ccsc4cc3C#N)ncn2)ccc1C(=O)O [Ex 128] | 76 nM | 151 nM | 192 nM | 103 nM |
| CCOc1cc(-c2cc(NCCc3ccc4sncc4c3)ncn2)sc1C(=O)O [Ex 135] | 171 nM | 198 nM | 172 nM | 115 nM |
| CCOc1cc(-c2cc(NCCc3ccc4ncoc4c3)ncn2)sc1C(=O)O [Ex 146] | 115 nM | 258 nM | 361 nM | 137 nM |
| CCOc1cc(-c2cc(NCCc3ccc4c(c3)COC4)ncn2)sc1C(=O)O [Ex 164] | 149 nM | 269 nM | 93 nM | 163 nM |
| O=C(O)c1ccc(-c2cc(NCCc3ccc4c(c3)CCS4)ncn2)cc1OC1CCC1 [Ex 170] | 94 nM | 241 nM | 124 nM | 168 nM |
| CCOc1cc(-c2cc(NCCc3cc4c(Cl)ccnc4cc3C)ncn2)sc1C(=O)O [Ex 178] | 54 nM | 30 nM | 164 nM | 188 nM |
| COc1cc2c(cc1CCNc1cc(-c3ccc(C(=O)O)c(OC4CCC4)c3)ncn1)OCCO2 [Ex 187] | 64 nM | 74 nM | 144 nM | 206 nM |
| CCOc1cc(-c2cc(NCCc3ccc4scc(C#N)c4c3)ncn2)ccc1CC(=O)O [Ex 209] | 248 nM | 832 nM | 143 nM | 249 nM |

The next lines start with the values.

| IC50 (EP2) | IC50 (PTGER2 (EP2)) | IC50 (PTGER4 (EP4)) | IC50 (EP4) | Structure (SMILES) |
| --- | --- | --- | --- | --- |
| 18 nM | 37 nM | 94 nM | 30 nM | COc1cc2ccccc2c(C)c1CCNc1cc(-c2ccc(C(=O)O)c(SC)c2)ncn1 [Ex 59] |
| 214 nM | 148 nM | 28 nM | 46 nM | CCOc1cc(-c2cc(NCCc3c(OC)cc4ccccc4c3C)ncn2)ccc1CC(=O)O [Ex 61] |
| 1770 nM | 809 nM | 91 nM | 39 nM | CCOc1cc(-c2cc(NCCc3c(C#N)cc4ccccc4c3F)ncn2)ccc1C(=O)O [Ex 73] |
| 25 nM | 47 nM | 154 nM | 43 nM | CSc1cc(-c2cc(NCCc3cc4ccsc4cc3C#N)ncn2)ccc1C(=O)O [Ex 77] |
| 83 nM | 43 nM | 56 nM | 44 nM | COc1cc2ccccc2c(C)c1CCNc1cc(-c2ccc(C(=O)O)c(OC3CCC3)c2)ncn1 [Ex 79] |
| 78 nM | 192 nM | 147 nM | 63 nM | CSc1cc(-c2cc(NCCc3cc4c(cc3C#N)OCCO4)ncn2)ccc1C(=O)O [Ex 97] |
| 12 nM | 34 nM | 101 nM | 78 nM | CCOc1cc(-c2cc(NCCc3cc4ccsc4cc3OC)ncn2)ccc1C(=O)O [Ex 109] |
| 682 nM | 243 nM | 53 nM | 85 nM | COc1cc2ccccc2c(F)c1CCNc1cc(-c2ccc(CC(=O)O)c(SC)c2)ncn1 [Ex 115] |
| 61 nM | 74 nM | 358 nM | 120 nM | CSc1cc(-c2cc(NCCc3ccc4c(c3)CCS4)ncn2)ccc1C(=O)O [Ex 138] |
| 126 nM | 174 nM | 46 nM | 141 nM | CCOc1cc(-c2cc(NCCc3ccc4ccccc4c3C)ncn2)sc1CC(=O)O [Ex 148] |
| 93 nM | 35 nM | 24 nM | 158 nM | CCOc1cc2ccccc2cc1CCNc1cc(-c2ccc(OCC(=O)O)c(OCC)c2)ncn1 [Ex 160] |
| 246 nM | 85 nM | 98 nM | 158 nM | COc1cc2ccccc2c(C)c1CCNc1cc(-c2ccc(CC(=O)O)c(SC)c2)ncn1 [Ex 163] |
| 120 nM | 83 nM | 62 nM | 181 nM | CCOc1cc2ccccc2cc1CCNc1cc(-c2ccc(C(=O)O)c(OC3CCC3)c2)ncn1 [Ex 171] |
| 269 nM | 409 nM | 88 nM | 90 nM | CCOc1cc(-c2cc(NCCc3cc4ccccc4c(F)c3OC)ncn2)ccc1C(=O)O [Ex 174] |
| 142 nM | 45 nM | 105 nM | 206 nM | CCOc1cc2ccccc2cc1CCNc1cc(-c2ccc(C(=O)O)c(OCC)c2)ncn1 [Ex 188] |
| 176 nM | 127 nM | 300 nM | 224 nM | COc1cc2c(cc1CCNc1cc(-c3ccc(CC(=O)O)c(SC)c3)ncn1)OCCO2 [Ex 197] |
| 29 nM | 12 nM | 633 nM | 186 nM | CSc1cc(-c2cc(NCCc3ccc4sccc4c3C)ncn2)ccc1C(=O)O [Ex 204] |
